Measured values: patent publication US20100130620A1, “NOVEL USE OF HYDROXYTYROSOL AND OLIVE EXTRACTS/CONCENTRATES CONTAINING IT” (priority 2007, published 2010)

Columns and labels:
ARPE-19 cells = experiment: JC-1 assay for mitochondrial membrane potential; format: cell-based, human; details: 10-100 μM HTS, no acrolein
Protocol: (§1) The human ARPE-19 cells (a human retinal pigment epithelial cell-line) were maintained in DMEM-F12 medium (Dulbecco's modified Eagle's medium) supplemented with 10% fetal bovine serum, 0.348% sodium bicarbonate, 2 mM L-glutamine, 100 U/mL penicillin and 100 μg/ml streptomycin. Cell cultures were maintained at 37° C. in a humidified atmosphere of 95% air and 5% CO2. The medium was changed every 3 to 4 days. ARPE-19 cells were used within 10 generations.
All experiments were performed with an 80% confluence monolayer grown in 96-well plates or 6 well plates. Hydroxytyrosol (HTS) was dissolved in DMSO (dimethyl sulfoxide). Acrolein was dissolved in PBS (phosphate buffer salt) each time immediately before an experiment. For the acute toxicity study, cells were exposed to acrolein for 24 hours. […]
Mitochondrial potential change (ΔΨ) was assessed in live APRE-19 cells using the lipophilic cationic probe 5,5′,6,6′-tetrachloro-1,1′,3,3′-tetraethylbenzimidazol-carbocyanine iodine (JC-1). For quantitative fluorescence measurement, cells were rinsed once after JC-1 staining and scanned with a multi-label counter (Wallac 1420; PerkinElmer Life Sciences, Wellesley, Mass.) at 485 nm excitation and 535 nm and 590 nm emission, to measure green and red JC-1 fluorescence respectively. […]

human ARPE-19 cells = format: cell-based
Protocol: as §1
All experiments were performed with an 80% confluence monolayer grown in 96-well plates or 6 well plates. Hydroxytyrosol (HTS) was dissolved in DMSO (dimethyl sulfoxide). Acrolein was dissolved in PBS (phosphate buffer salt) each time immediately before an experiment. For the acute toxicity study, cells were exposed to acrolein for 24 hours. The protective effects of HTS (Hydroxytyrosol) were studied with the acute toxicity model by pre-treating cells with HTS for 48 hours or for 7 days.
The MTT assay reduction assay was used as a […] index of cell viability. The optical densities were read at 555 nm using a microplate spectrophotometer (Spectra Max 340, Molecular Dabices, Sunnyvale, Calif.). Absorbance values were normalized with untreated cells to calculate the changes in cell viability.
The ARPE-19 cells were seeded at 4×10^4 per well in a 96 well plate. […]

## OCCc1ccc(O)c(O)c1 [HTS, 3,4-dihydroxyphenyl ethanol]
ARPE-19 cells
  effect of HTS itself on mitochondrial membrane potential: no apparent effect on mitochondrial membrane potential
Human ARPE-19 cells; 10-100 μM HTS, ARPE-19, no acrolein, FIG. 1
  effect of HTS itself on cell viability: no apparent effect on cell viability
Human ARPE-19 cells; pretreatment, 75 μM acrolein 24 hours
  HTS concentration range protecting against acute acrolein-induced decrease in cell viability: 10 to 20 µM
